According to US10562850B2, “Human plasma kallikrein inhibitors” (priority 2015, dated 2020):

Molecular target: human plasma kallikrein (Homo sapiens (Human), UniProt P03952)
Test: Plasma Kallikrein Activity Assay (chromogenic substrate S2302)
Format: biochemical
Conditions: 2 nM kallikrein, 80 μM S2302, 30° C., pH 7.8; Cheng-Prusoff
Method: Plasma Kallikrein Activity Assay.
The effect of compounds of the invention on human plasma kallikrein activity was determined using the chromogenic substrates (DiaPharma Group, Inc., West Chester, Ohio, USA). In these experiments, 2 nM kallikrein (Enzyme Research Laboratories, South Bend, Ind., USA) was incubated with 80 μM S2302 (H-D-Pro-Phe-Arg-p-nitroaniline) in the absence or presence of increasing concentrations of compounds of the invention in a final volume of 200 μL Tris-HCl buffer (200 mM NaCl; 2.5 mM CaCl2; 50 mM Tris-HCl, pH 7.8).
After incubation at 30° C., the activity of kallikrein was measured as a change in absorbance at OD 405 nm using BioTek PowerWave X340 Microplate Reader (Winooski, Vt., USA). Data were analyzed using SigmaPlot software (Systat Software, Inc., San Jose, Calif., USA) (Four Parameter Logistic Curve). Ki values for the inhibitors were determined using the Cheng-Prusoff equation (Biochem. Pharmacol. 1973, 22, 3099).

Sequence of human plasma kallikrein (P03952 391-638): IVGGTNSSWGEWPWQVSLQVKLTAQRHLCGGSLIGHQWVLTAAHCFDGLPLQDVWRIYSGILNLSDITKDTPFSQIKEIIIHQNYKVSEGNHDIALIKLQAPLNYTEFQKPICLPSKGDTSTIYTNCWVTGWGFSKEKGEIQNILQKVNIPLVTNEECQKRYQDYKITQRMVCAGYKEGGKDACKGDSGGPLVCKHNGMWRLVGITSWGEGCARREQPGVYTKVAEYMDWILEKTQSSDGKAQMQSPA
Sequence of human plasma kallikrein (P03952 20-390 partner): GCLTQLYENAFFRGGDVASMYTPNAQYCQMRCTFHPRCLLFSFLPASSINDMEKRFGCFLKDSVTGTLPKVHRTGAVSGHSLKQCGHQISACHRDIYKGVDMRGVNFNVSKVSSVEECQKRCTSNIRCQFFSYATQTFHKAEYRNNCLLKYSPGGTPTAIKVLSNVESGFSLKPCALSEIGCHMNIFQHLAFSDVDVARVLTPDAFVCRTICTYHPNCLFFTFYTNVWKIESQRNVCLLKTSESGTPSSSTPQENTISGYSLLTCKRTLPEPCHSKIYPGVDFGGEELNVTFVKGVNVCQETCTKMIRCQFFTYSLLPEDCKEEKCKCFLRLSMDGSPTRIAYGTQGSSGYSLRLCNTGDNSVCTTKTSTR

Row | Molecule | Ki [nM]
1 | CO[C@@H]1C[C@H](C(=O)Nc2cc(C(CCC3CC3)N3CCCCC3=O)ccc2F)N(C(=O)Nc2ccc(Cl)cn2)C1 (stereo partly drawn) [Compound 44e, (2R,4R)-N1-(5-chloropyridin-2-yl)-N2-(5-((+)-3-cyclopropyl-1-(2-oxopiperidin-1-yl)propyl)-2-fluorophenyl)-4-methoxypyrrolidine-1,2-dicarboxamide] | > 100
2 | CC(C)(C)[S@@+]([O-])NC(CCC1CC1)(c1cccc(C#N)c1)c1ccc(F)c(NC(=O)[C@H]2C[C@@H](O)CN2C(=O)Nc2ccc(Cl)cc2)c1 (stereo partly drawn) [Compound 4f, (2R,4R)-N1-(4-chlorophenyl)-N2-(5-((−)-1-(3-cyanophenyl)-3-cyclopropyl-1-((R)-1,1-dimethylethylsulfinamido)propyl)-2-fluorophenyl)-4-hydroxypyrrolidine-1,2-dicarboxamide] | 50 to 100
3 | (2R,4R)-N1-(4-chlorophenyl)-N2-(5-((+)-3-cyclopropyl-1-((S)-1,1-dimethylethylsulfinamido)-1-(pyridin-2-yl)propyl)-2-fluorophenyl)-4-hydroxypyrrolidine-1,2-dicarboxamide [Compound 61b] | < 50
4 | CO[C@@H]1C[C@H](C(=O)Nc2cc(C(N)(CCC3CC3)c3ccncc3)ccc2F)N(C(=O)Nc2ccc(Cl)cc2)C1 (stereo partly drawn) [Compound 71a, (2R,4R)-N2-(5-((+)-1-amino-3-cyclopropyl-1-(pyridin-4-yl)propyl)-2-fluorophenyl)-N1-(4-chlorophenyl)-4-methoxypyrrolidine-1,2-dicarboxamide] | < 50
5 | C[C@@H]1C[C@H](C(=O)Nc2cc(C(N)(CCC3CC3)c3ccncc3)ccc2F)N(C(=O)Nc2ccc(Cl)cn2)C1 (stereo partly drawn) [Compound 49d, (2R,4R)-N2-(5-((+)-1-amino-3-cyclopropyl-1-(pyridin-4-yl)propyl)-2-fluorophenyl)-N1-(5-chloropyridin-2-yl)-4-methylpyrrolidine-1,2-dicarboxamide] | 50 to 100
6 | CO[C@@H]1C[C@H](C(=O)Nc2cc(C(N)(CCC3CC3)c3ccncc3)ccc2F)N(C(=O)c2ccc(Cl)c(N)c2)C1 (stereo partly drawn) [Compound 84a, (2R,4R)-N-(5-((+)-1-amino-3-cyclopropyl-1-(pyridin-4-yl)propyl)-2-fluorophenyl)-1-(3-amino-4-chlorobenzoyl)-4-methoxypyrrolidine-2-carboxamide] | > 100
7 | NC(CCC1CC1)(c1ccncc1)c1ccc(F)c(NC(=O)[C@H]2C[C@@H](O)CN2C(=O)Nc2ccc(Cl)cn2)c1 (stereo partly drawn) [Compound 72c, (2R,4R)-N2-(5-((+)-1-amino-3-cyclopropyl-1-(pyridin-4-yl)propyl)-2-fluorophenyl)-N1-(5-chloropyridin-2-yl)-4-hydroxypyrrolidine-1,2-dicarboxamide] | < 50
8 | CNC(CCC1CC1)(c1ccnc(C)c1)c1ccc(F)c(NC(=O)[C@H]2C[C@@H](OC)CN2C(=O)Nc2ccc(Cl)cn2)c1 (stereo partly drawn) [Compound 79a, (2R,4R)-N1-(5-chloropyridin-2-yl)-N2-(5-((+)-3-cyclopropyl-1-(methylamino)-1-(2-methylpyridin-4-yl)propyl)-2-fluorophenyl)-4-methoxypyrrolidine-1,2-dicarboxamide] | < 50
9 | CO[C@@H]1C[C@H](C(=O)Nc2cc(C(N)(CCC3CC3)c3ccncc3)ccc2F)N(C(=O)Cc2ccc(Cl)cc2)C1 (stereo partly drawn) [Compound 76e, (2R,4R)-N-(5-((+)-1-amino-3-cyclopropyl-1-(pyridin-4-yl)propyl)-2-fluorophenyl)-1-(2-(4-chlorophenyl)acetyl)-4-methoxypyrrolidine-2-carboxamide] | > 100
10 | N#Cc1cccc(C(N)(CCC2CC2)c2ccc(F)c(NC(=O)[C@H]3C[C@@H](O)CN3C(=O)Nc3ccc([N+](=O)[O-])cc3)c2)c1 (stereo partly drawn) [Compound 25b, (2R,4R)-N2-(5-((+)-1-amino-1-(3-cyanophenyl)-3-cyclopropylpropyl)-2-fluorophenyl)-4-hydroxy-N1-(4-nitrophenyl)pyrrolidine-1,2-dicarboxamide] | > 100
11 | CO[C@@H]1C[C@H](C(=O)Nc2cc(C(N)(CCC3CC3)c3ccnc(C)c3)ccc2F)N(C(=O)Nc2ccc(Cl)cn2)C1 (stereo partly drawn) [Compound 46k, (2R,4R)-N2-(5-((+)-1-amino-3-cyclopropyl-1-(2-methylpyridin-4-yl)propyl)-2-fluorophenyl)-N1-(5-chloropyridin-2-yl)-4-methoxypyrrolidine-1,2-dicarboxamide] | < 50
12 | CO[C@@H]1C[C@@H](C(=O)Nc2cc(C(N)(CCC3CC3)c3cccc(C#N)c3)ccc2F)N(C(=O)N(C)c2ccc(Cl)cc2)C1 (stereo partly drawn) [Compound 6f, (2S,4R)-N2-(5-((+)-1-amino-1-(3-cyanophenyl)-3-cyclopropylpropyl)-2-fluorophenyl)-N1-(4-chlorophenyl)-4-methoxy-N1-methylpyrrolidine-1,2-dicarboxamide] | > 100
13 | CO[C@@H]1C[C@H](C(=O)Nc2cc(C(N)(CCC3CC3)c3ccncc3)ccc2F)N(C(=O)c2ccc(F)c(N)c2)C1 (stereo partly drawn) [Compound 85a, (2R,4R)-N-(5-((+)-1-amino-3-cyclopropyl-1-(pyridin-4-yl)propyl)-2-fluorophenyl)-1-(3-amino-4-fluorobenzoyl)-4-methoxypyrrolidine-2-carboxamide] | > 100
14 | CO[C@@H]1C[C@H](C(=O)Nc2cc(C(N)(CCC3CC3)c3ccncc3)ccc2F)N(C(=O)c2ccc3c(Cl)c[nH]c3c2)C1 (stereo partly drawn) [Compound 83a, (2R,4R)-N-(5-((+)-1-amino-3-cyclopropyl-1-(pyridin-4-yl)propyl)-2-fluorophenyl)-1-(3-chloro-1H-indole-6-carbonyl)-4-methoxypyrrolidine-2-carboxamide] | > 100
15 | N#Cc1cccc(C(N)(CCC2CC2)c2ccc(F)c(NC(=O)[C@H]3C[C@@H](O)CN3C(=O)Nc3ccccc3)c2)c1 (stereo partly drawn) [Compound 21d, (2R,4R)-N2-(5-((+)-1-amino-1-(3-cyanophenyl)-3-cyclopropylpropyl)-2-fluorophenyl)-4-hydroxy-N1-phenylpyrrolidine-1,2-dicarboxamide] | > 100
16 | N#Cc1cccc(C(N)(CCC2CC2)c2ccc(F)c(NC(=O)[C@H]3CCCN3C(=O)Nc3ccc(Cl)cn3)c2)c1 (stereo partly drawn) [Compound 13e, (R)-N2-(5-((+)-1-amino-1-(3-cyanophenyl)-3-cyclopropylpropyl)-2-fluorophenyl)-N1-(5-chloropyridin-2-yl)pyrrolidine-1,2-dicarboxamide] | > 100
17 | CO[C@]1(c2ccccc2)C[C@H](C(=O)Nc2cc(C(CCC3CC3)(N[S@@+]([O-])C(C)(C)C)c3ccccn3)ccc2F)N(C(=O)OC(C)(C)C)C1 (stereo partly drawn) [Compound 34b, (2R,4S)-tert-butyl-2-(5-((+)-3-cyclopropyl-1-((S)-1,1-dimethylethylsulfinamido)-1-(pyridin-2-yl)propyl)-2-fluorophenylcarbamoyl)-4-methoxy-4-phenylpyrrolidine-1-carboxylate] | > 100
18 | CCCO[C@@H]1C[C@H](C(=O)Nc2cc(C(N)(CCC3CC3)c3ccncc3)ccc2F)N(C(=O)Nc2ccc(Cl)cn2)C1 (stereo partly drawn) [Compound 52d, (2R,4R)-N2-(5-((+)-1-amino-3-cyclopropyl-1-(pyridin-4-yl)propyl)-2-fluorophenyl)-N1-(5-chloropyridin-2-yl)-4-propoxypyrrolidine-1,2-dicarboxamide] | < 50
19 | CO[C@@H]1C[C@H](C(=O)Nc2cc([C@](CCC3CC3)(N[S@+]([O-])C(C)(C)C)c3ccncc3)ccc2F)N(S(=O)(=O)c2ccc3cc(Cl)ccc3c2)C1 [Compound 87b, (2R,4R)-1-(6-chloronaphthalen-2-ylsulfonyl)-N-(5-((S)-3-cyclopropyl-1-((R)-1,1-dimethylethylsulfinamido)-1-(pyridin-4-yl)propyl)-2-fluorophenyl)-4-methoxypyrrolidine-2-carboxamide] | > 100
20 | NC(CCC1CC1)(c1ccncc1)c1ccc(F)c(NC(=O)[C@H]2C[C@](O)(c3ccccc3)CN2C(=O)Nc2ccc(Cl)cc2)c1 (stereo partly drawn) [Compound 40a, (2R,4S)-N2-(5-((+)-1-amino-3-cyclopropyl-1-(pyridin-4-yl)propyl)-2-fluorophenyl)-N1-(4-chlorophenyl)-4-hydroxy-4-phenylpyrrolidine-1,2-dicarboxamide] | < 50
21 | NC(CCC1CC1)(c1ccncc1)c1ccc(F)c(NC(=O)[C@H]2C[C@](O)(c3ccccc3)CN2C(=O)Nc2ccc(Cl)cn2)c1 (stereo partly drawn) [Compound 39h, (2R,4S)-N2-(5-((+)-1-amino-3-cyclopropyl-1-(pyridin-4-yl)propyl)-2-fluorophenyl)-N1-(5-chloropyridin-2-yl)-4-hydroxy-4-phenylpyrrolidine-1,2-dicarboxamide] | < 50
22 | CO[C@@H]1C[C@H](C(=O)Nc2cc(C(N)(CCC3CC3)c3ccccn3)ccc2F)N(C(=O)Nc2ccc(Cl)cn2)C1 (stereo partly drawn) [Compound 37d, (2R,4R)-N2-(5-((+)-1-amino-3-cyclopropyl-1-(pyridin-2-yl)propyl)-2-fluorophenyl)-N1-(5-chloropyridin-2-yl)-4-methoxypyrrolidine-1,2-dicarboxamide] | < 50
23 | CO[C@@H]1C[C@H](C(=O)Nc2cc(C(CCC3CC3)(N[S@+]([O-])C(C)(C)C)c3cccc(C#N)c3)ccc2F)N(C(=O)Nc2ccc(Cl)cn2)C1 (stereo partly drawn) [Compound 18a] | < 50
24 | N#Cc1cccc(C(N)(CCC2CC2)c2ccc(F)c(NC(=O)[C@H]3C[C@H](O)CN3C(=O)Nc3ccc(Cl)cc3)c2)c1 (stereo partly drawn) [Compound 9c, (2R,4S)-N2-(5-((+)-1-amino-1-(3-cyanophenyl)-3-cyclopropylpropyl)-2-fluorophenyl)-N1-(4-chlorophenyl)-4-hydroxypyrrolidine-1,2-dicarboxamide] | > 100
